Assays:
Format in all cases: in vivo
[1] = test system: umami and salt taste of 0.5% NaCl solution; assay: Tasting of NaCl solutions by flavourists (Example 2); details: 0.5% NaCl + 5 ppm compound compared with 0.5% NaCl reference; scale -3 (much lower) to 3 (much higher), 0 = same as reference; average of flavourists' ratings
Procedure: An aqueous NaCl solution (0.5% by weight) was prepared (reference) to which 5 ppm of a compound of formula (I) was added.
The samples were tasted by a group of flavourists. The intensity of the umami and salt taste of the NaCl solutions comprising a compound of formula (I) (0.5% NaCl; 5 ppm of a compound of formula (I)) was compared with that of the reference (0.5% NaCl) and rated according to the following intensity scale:
Taste effect much lower than reference: −3
Taste effect lower than reference: −2
Taste effect slightly lower than reference: −1
Taste effect same as reference: 0
Taste effect slightly higher than reference: 1
Taste effect higher than reference: 2
Taste effect much higher than reference: 3

[2] = test system: taste of NaCl, MSG and Ribo solutions; assay: Taste enhancement of NaCl, MSG and Ribo solutions, tasted by flavourists (Example 3); details: linear scale 0 to 10; for Taste intensity NaCl: solution D (0.5% NaCl + 5 ppm compound) compared with A (0.5% NaCl, = 0.0), 5-10 flavourists; for Taste intensity MSG: solution E (0.5% NaCl + 0.03% MSG + 5 ppm compound) compared with B (0.5% NaCl + 0.03% MSG, = 5.0); for Taste intensity Ribo: solution F (0.5% NaCl + 0.015% Ribo + 5 ppm compound) compared with C (0.5% NaCl + 0.015% Ribo, = 5.0)
Procedure: Six solutions were prepared: • A a solution of 0.5% NaCl • B a solution of 0.5% NaCl and 0.03% MSG (monosodium glutamate) • C a solution of 0.5% NaCl and 0.015% Ribo (disodium 5-ribonucleotides=E635) • D a solution of 0.5% NaCl and 5 ppm of a compound of formula (I) • E a solution of 0.5% NaCl and 0.03% MSG and 5 ppm a compound of formula (I) • F a solution of 0.5% NaCl and 0.015% Ribo and 5 ppm of a compound of formula (I)
The samples were tasted by a group of 5-10 flavourists aged between 30 and 60. The taste of solution D was compared with that of A to determine the enhancement effect of a compound of formula (I) on NaCl. Similarly, solution E was compared with solution B and solution F with solution C to determine the enhancement effect of a compound of formula (I) on MSG and Ribo respectively. The effect was marked on a linear scale between 0 and 10, the greater the value the greater the effect. For a reference, the taste solutions of B and C were compared with A as well.

[3] = test system: taste of vegetarian bouillon; assay: Vegetarian bouillon tasting by flavourists (Example 4); details: 10 ppm compound in vegetarian bouillon (32 g mix in 1 L boiling water); 4 flavourists
Procedure: A vegetarian bouillon mix was prepared from 204.71 g of sodium chloride, 147.76 g of dextrose monohydrate (ex Tapioca), 0.19 g of celery oleoresin, 0.19 g of oleoresin coriander seed, 418.64 g maltodextrin 5-8 DE, 37.65 g vegetable oil soya bean refined, 28.24 g yeast standard light, 3.76 g of onion powder, 3.76 g of garlic powder, 0.47 g of white pepper and 154.35 g of potato starch.
32 g of the well-mixed ingredients was added to 1 L of boiling water and stirred until completely dissolved.

[4] = test system: umami- and salt-taste in comestible products; assay: Taste imparted in comestible products (general statement)

SMILES	Taste intensity Salt (NaCl) [1]	Taste intensity Umami [1]	Taste intensity NaCl [2]	Taste intensity MSG [2]	Taste intensity Ribo [2]	Taste of test bouillon compared with reference bouillon [3]	Taste imparted in comestible products [4]
COc1cc(CNCCO)ccc1O.Cl [N-(2-hydroxyethyl) vanillylamine hydrochloride]	0.33	0.67	–	–	–	–	–
OCC(CO)NCc1ccc2c(c1)OCO2 [N-piperonyl 1,3-dihydroxy-2-propylamine]	1.00	0.50	2.3	5.0	5.0	–	–
CCC(CO)NCc1ccc2c(c1)OCO2 (stereo not shown) [N-piperonyl 1-hydroxy-2-butylamine]	0.67	0.33	1.0	5.3	5.0	–	–
OCCNCc1ccc2c(c1)OCO2 [N-piperonyl 2-hydroxyethylamine]	0.75	0.00	–	–	–	–	–
CCC(CC)NCc1ccc2c(c1)OCO2 [N-piperonyl 3-pentylamine]	0.50	0.00	1.0	6.3	5.3	more umami, sweeter and more lingering	–
C[C@H](NCc1ccc2c(c1)OCO2)C(=O)O [N-piperonyl alanine]	0.50	0.00	–	–	–	–	–
CCNCc1ccc2c(c1)OCO2 [N-piperonyl ethylamine]	0.75	0.25	1.3	6.6	5.6	more umami, more salty, slightly sweeter and had a slightly more powdery volatile effect	imparted an umami- and salt-taste
CC(C)NCc1ccc2c(c1)OCO2 [N-piperonyl isopropylamine]	0.50	0.00	–	–	–	–	–
CNCc1ccc2c(c1)OCO2 [N-piperonyl methylamine]	0.25	0.00	–	–	–	–	–
CCCNCc1ccc2c(c1)OCO2 [N-piperonyl n-propylamine]	1.00	0.00	–	–	–	–	–
CCNCc1ccc(O)c(OC)c1.Cl [N-vanillyl ethylamine hydrochloride]	0.67	0.67	–	–	–	–	–

Source: patent publication US10226062B2, “Organic compounds” (priority 2013, dated 2019)
